# A melting point compilation (Tetko et al.; mined from patent text by program, amines drawn as free bases though some values may be those of a salt)
row,Structure (SMILES),melting point [°C]
1,CCc1c(C(=O)C(N)=O)c2c(OCC(=O)N(C)OCc3ccccc3)cccc2n1Cc1ccccc1,186 to 188
2,CCCC(=O)Nc1c2c(nc3ccccc13)CCCC2,202 to 204
3,CCCCCCCCCCCCCCCCCCSP(=S)(C1CCCCC1)C1CCCCC1,67 to 69
4,CCCOc1cccc(CCOc2ccc3c(c2)C=C(C(=O)Nc2ccc(CN(C)C4CCOCC4)cc2)CCS3(=O)=O)c1,153 to 154
5,O=C(O)c1csc(Nc2ccc(C(F)(F)F)cc2)n1,255 to 259
6,COc1ccc2c(c1)C(CCC(C)C)(C(F)(F)F)OCC(=O)N2 (stereo not given),123 to 130
7,COC(=O)c1ccccc1-c1ccc(CN2C(=O)c3ccccc3C2=O)cc1,148 to 150
8,CC1(C)COc2cc3c(cc21)C1(CO3)C(=O)N(C(c2ccccc2)c2ccccc2)c2ccccc21 (stereo not given),190 to 192
9,O=C1NC(=O)C(c2sccc2Br)O1 (stereo not given),138 to 139
10,CS(=O)(=O)c1ccc(-n2cc(C(F)(F)F)nc2-c2ccc(-c3cccs3)cc2)cc1,95 to 97
11,COc1cc(CCC#N)c(Br)cc1OCc1ccccc1,52 to 53
12,O=C(O)CCc1cc(OCCCCc2cc(-c3ccc(C(F)(F)F)cc3)no2)nn1-c1ccccc1,139 to 140
13,CCCCCCCCCCCCCCCCCCOC(=O)N(C)CC(O)C(O)C(O)C(O)CO (stereo not given),85
14,CC(C)(C)c1cc(Oc2ccc([N+](=O)[O-])c(O)c2)ccc1Oc1ccc([N+](=O)[O-])c(O)c1,156 to 158
15,CC(=O)OC(C)C(=O)Nc1ccc(C2=NNC(=O)CC2C)cc1 (stereo not given),198 to 200
16,COc1cccc2c1C(=O)c1c(OC)cc(Cc3ccccc3C(O)=S)cc1C2=O,235 to 237
17,C[Si](C)(C)CCCCNC(=O)n1cc(F)c(=O)[nH]c1=O,129 to 132
18,CCCCCCCNC(=O)Nc1ccccc1C(=O)Nc1ccc(CCCCCCC)cc1,155 to 157
19,CCCCCn1cc(C(=O)O)c(=O)c(I)c1C,154
20,CCOC(=O)c1cnn2c1c(N1CCN(c3ccccc3)CC1)nc1ccccc12,134 to 135
21,Cc1c(C(=O)Nc2ccc(N3CCC(N4CCC(O)CC4)CC3)c(C#N)c2)cnn1-c1ccc(Cl)cc1,213

row,Structure (SMILES),melting point [°C]
1,O=C(O)COc1c(-c2cc(Cl)cc(Cl)c2)cc(C(=O)NCCCCCCCCc2ccccc2)cc1-c1cc(Cl)cc(Cl)c1,139 to 149
2,C=C1SC(=S)N(c2cccc3c(-c4ccc(OC)c(C56CC7CC(CC(C7)C5)C6)c4)cccc23)C1=O,322 to 324
3,CC(C)=NOCc1nc2c(N)nc3ccccc3c2n1CCNC(=O)NC(C)C,230 to 231
4,COc1ccc(/C(=C/C=C/C(=O)O)c2cccs2)cc1,214 to 216
5,CCC1CCC(Oc2cc(F)cc(C(=O)Nc3ccc(OCCN4CCOCC4)c4ccccc34)c2)CC1 (stereo not given),102 to 105
6,O=C(CNC(=O)CN1CCCC1=O)NCC(=O)Nc1ccncc1,250 to 253
7,NN=CNCCCCNC(=O)[C@@H]1CCCN1C(=O)[C@@H](CCC(N)=O)NS(=O)(=O)c1ccc2ccccc2c1,72 to 74
8,COc1ccc(-c2nc3cnncc3[nH]2)c(OCC#N)c1,268
9,COc1ccc2c3c(c(=O)oc2c1OC)CN(Cc1ccccc1)CC3,138 to 140
10,CON=C(C)c1ccc(NS(C)(=O)=O)c(Oc2ccc(F)cc2F)c1,118 to 120
11,CCCCCCCCCCOc1ccc(OCc2ccccc2)c(C(=O)N(CC(=O)OCC)CC(=O)OCC)c1,37 to 38
12,CCCn1c(COCC)nc2c(N)nc3ccc(OCC(=O)N4CCS(=O)(=O)CC4)cc3c21,223 to 225
13,CCCCCCCCCCCCCCCNC(=O)OCCOCCOCCOC(=O)NCc1ccccn1,58 to 62
14,C=CCn1c(C)c(C)c2cnnc(OCc3cccc(F)c3)c21,85 to 86
15,COc1cc(C)c(OC)c(C=C(C)[N+](=O)[O-])c1C,48 to 49
16,CCn1nc2c(N)nc3ncccc3c2c1CC(C)(C)O,283 to 286
17,CCOC(=O)C(=C(c1ccc(F)cc1)c1ccc(F)cc1)c1nnn(C)n1,117 to 118
18,Cc1cc2c(cc1C)C(=O)CCC2,47 to 48
19,O=c1ccc(S(=O)(=O)n2cccc2)n[nH]1,140 to 145
20,O=C(N[C@H]1CC[C@H](CCN2CCN(c3nccc4c3CCO4)CC2)CC1)c1ccc(-c2cccnc2)cc1,218
21,CN1CCCC1CNC(=O)c1ccc(S(=O)(=O)N(C)C)c2c1OCCO2 (stereo not given),165 to 166

# Second part, the compound after the results:
row,melting point [°C],Structure (SMILES)
1,168,CC(CC1=C(O)C(=O)c2ccccc2C1=O)C(F)(F)F (stereo not given)
2,112 to 114,CC(=O)SC[C@H](NC(=O)C(C)C)C(=O)NCCSC(=O)C(C)(C)C
3,218 to 220,CSc1ccc(-c2cc(-c3nc4ccccc4c(=O)n3-c3ccccc3)sc2N2CCOCC2)cc1
4,187 to 190,N#Cc1c(OCc2ccc(F)cc2F)ccn(Cc2cccc(F)c2)c1=O
5,154,C#Cc1cnn2c(C(F)(F)F)cc(-c3cccc(C(F)(F)F)c3)nc12
6,110 to 112,COCC1CN(c2ccc3cc(OCCC#N)ccc3c2)C(=O)O1 (stereo not given)
7,109 to 111,CCCSc1cc(S(N)(=O)=O)c(N)cc1Cl
8,163 to 164,C#CCOc1c(Cl)cc(Cl)cc1C(=O)O
9,78.5 to 79.5,CCC(=O)c1ccsc1N(C)C(C)=O
10,93 to 94,C[C@@]1(Cn2cc([N+](=O)[O-])nc2Br)CO1
11,204 to 207,Clc1ccc(-c2c[nH]nc2-c2ccncc2)cc1
12,99 to 102,C[C@H](NC(=O)OC(C)(C)C)C(=O)C=[N+]=[N-]
13,178 to 180,CCCCC1c2ccccc2-c2cc(Br)ccc2N1S(=O)(=O)c1ccc(O)cc1 (stereo not given)
14,202,CCCn1c(C)nn(-c2ccc(N3CCN(c4ccc(OC)cc4)CC3)cc2)c1=O
15,204 to 205,O=C1CCC(=NNc2ccc(I)cc2)c2ncccc2N1
16,237 to 241,O=C(NC(=O)c1c(F)cccc1F)Nc1ccc(-c2ccc(Cl)cc2)c(Cl)n1
17,239 to 240,COc1cc(C#N)ccc1-c1ccnc(-c2ccc(C#N)cc2)n1
18,92 to 93,COc1cccc(C(=O)C=C2CCCN2C)c1
19,40 to 41,COc1ccc(C2(O)OC(=O)C(c3ccc4nsnc4c3)=C2Cc2cc(OC)c(OC3CCCC3)c(OC)c2)cc1 (stereo not given)
20,240 to 241,O=C(O)C1=Cc2cc(F)cc(Cl)c2OC1C(F)(F)F (stereo not given)
21,276 to 277,Cc1ccc(-c2cc(O)c3[nH]c(=O)ccc3c2)c(C)n1
22,164 to 165,CCCCCCOc1ccc2c(c1CCC)OC(CCC(=O)O)(CCC(=O)O)CC2=O
23,93 to 95,C=CCSC(=S)c1cc(C(C)(C)C)c(O)c(C(C)(C)C)c1
24,109 to 110,OCc1cc(Cl)c(Br)cn1
25,184,"Clc1ccc(C2CN3CCN=C3c3ccccc32)cc1 (single isomer, unassigned; (-))"
26,165,COc1c(Br)c(-c2cc(C(C)C)n(C)n2)cc2oc(=O)c(Cl)c(C)c12
27,278 to 280,CN=C1CSc2ccccc2CN1
28,166 to 168,CC1(C)C(C(=O)OCC(Cl)(Cl)Cl)N2C(=O)C(NC(=O)Cc3ccccc3)C2S1=O (stereo not given)
